Test results reported in patent US20120108592A1, “PHARMACEUTICAL COMPOSITIONS AND METHODS OF USE OF SALICYLANILIDES FOR TREATMENT OF HEPATITIS VIRUSES” (priority 2010, published 2012).
Several values for one entry are separate records, joined by “and”; a condition that tells them apart may be missing. Identical values can stand only once.

Columns and labels:
[1] = system: HBV virion in 2.2.15 cells; assay: HBV antiviral assay in 2.2.15 cells, virion (VIR) HBV DNA; format: cell-based; conditions: Hepatitis B virus, HBV virion DNA, 2.2.15 cells, nine daily doses; for EC50: read-out: EC50 (VIR); for EC90: read-out: EC90 (VIR)
Description: (§3) HBV antiviral assays were conducted as previously described [Korba, B. E. et al. Antiviral Res. 77, 56-63 (2008);].

[2] = Cytotoxicity in 2.2.15 cells (neutral red dye uptake); format: cell-based; conditions: human, nine daily doses
Description: Briefly, confluent cultures of 2.2.15 cells were maintained on 96-well flat-bottomed tissue culture plates (confluence in this culture system is required for active, high levels of HBV replication equivalent to that observed in chronically-infected individuals. Cultures were treated with nine consecutive daily doses of the test compounds. HBV DNA levels were assessed by quantitative blot hybridization 24 hr. after the last treatment. Cytotoxicity was assessed by uptake of neutral red dye 24 hr. following the last treatment.

[3] = system: HBV replication intermediates in 2.2.15 cells; assay: HBV antiviral assay in 2.2.15 cells, replication intermediates (RI) HBV DNA; format: cell-based; conditions: Hepatitis B virus, HBV replication intermediates, 2.2.15 cells, nine daily doses; for EC50: read-out: EC50 (RI); for EC90: read-out: EC90 (RI)
Description: as §3

[4] = system: HCV replicon cell line, AVA5 (sub-genomic CONI, genotype 1b); assay: Primary HCV replicon cell assay, antiviral activity (intracellular HCV RNA, blot hybridization); format: cell-based; conditions: Hepatitis C virus, Ava5, 72 h, 3-day assay; for EC50: 2-fold depression of intracellular HCV RNA; for EC90: 10-fold depression of intracellular HCV RNA
Description: (§1) Antiviral activity of test compounds was assessed in a 3-day assay using the stably-expressing HCV replicon cell line, AVA5 (sub-genomic CONI, genotype 1b) [Korba, B. E. et al. Antiviral Res. 77, 56-63 (2008); Blight et al., Science 290, 1972-1974 (2000)] maintained as sub-confluent cultures on 96-well plates as previously described [Okuse et al., Antiviral Research 65, 23-34 (2005)]. Antiviral activity was determined by blot hybridization analysis of intracellular HCV RNA (normalized to the level of cellular B-actin RNA in each culture sample) and cytotoxicity was assessed by neutral red dye uptake after 3 days of treatment. Additional studies were performed using Huh7 cells containing another HCV replicon, H/FL-Neo, a genotype la full length construct [Blight et al., J. Virol. 77, 3181-3190 (2003)]. For studies involving human serum, standard culture medium (which contains 10% fetal bovine serum) and assay conditions were maintained.
(§2) EC50, EC90 and CC50 values (±standard deviations [S.D.]) were calculated by linear regression analysis using data combined from all treated cultures (Korba, B. E. et al. Antiviral Res. 77, 56-63 (2008)). […] Selectivity index (S.I.) was calculated as CC50/EC90 for HBV assays and CC50/EC50 for HCV assays.

[5] = Primary HCV replicon cell assay, cytotoxicity (neutral red dye uptake); format: cell-based; conditions: human, AVA5 HCV replicon cells (sub-genomic CON1, genotype 1b), 3 days of treatment
Description: (§4) Antiviral activity of test compounds was assessed in a 3-day assay using the stably-expressing HCV replicon cell line, AVA5 (sub-genomic CONI, genotype 1b) [Korba, B. E. et al. Antiviral Res. 77, 56-63 (2008); Blight et al., Science 290, 1972-1974 (2000)] maintained as sub-confluent cultures on 96-well plates as previously described [Okuse et al., Antiviral Research 65, 23-34 (2005)]. Antiviral activity was determined by blot hybridization analysis of intracellular HCV RNA (normalized to the level of cellular B-actin RNA in each culture sample) and cytotoxicity was assessed by neutral red dye uptake after 3 days of treatment. Additional studies were performed using Huh7 cells containing another HCV replicon, H/FL-Neo, a genotype la full length construct [Blight et al., J. Virol. […] For studies involving human serum, standard culture medium (which contains 10% fetal bovine serum) and assay conditions were maintained.

[6] = system: HCV replicon cell line, AVA5 (sub-genomic CONI, genotype 1b); assay: Secondary HCV replicon cell assay genotype 1b, antiviral activity; format: cell-based; conditions: Hepatitis C virus; for EC50: 2-fold depression of intracellular HCV RNA; for EC90: 10-fold depression of intracellular HCV RNA
Description: as §1, §2

[7] = Secondary HCV replicon cell assay genotype 1b, cytotoxicity (neutral red dye uptake); format: cell-based; conditions: human, AVA5 HCV replicon cells (sub-genomic CON1)
Description: as §4

[8] = system: HCV replicon H/FL-Neo, genotype 1a full length construct, in Huh7 cells; assay: Secondary HCV replicon cell assay genotype 1a, antiviral activity; format: cell-based; conditions: Hepatitis C virus; for EC50: Huh-7, 2-fold depression of intracellular HCV RNA; for EC90: Huh-7, 10-fold depression of intracellular HCV RNA
Description: as §1, §2

[9] = Secondary HCV replicon cell assay genotype 1a, cytotoxicity (neutral red dye uptake); format: cell-based; conditions: human
Description: as §4

Row | Structure (SMILES) | melting point | EC50 [4] | EC90 [4] | CC50 at 3 days [5] | also measured
1 | O=C(Nc1ccc([N+](=O)[O-])cc1)c1ccccc1O | 233 °C | – | – | – | –
2 | CC(=O)Oc1ccccc1C(=O)Nc1ccc(F)c(F)c1 [Compound 55, 2-(3,4-difluorophenylcarbamoyl)phenyl acetate] | – | – | – | – | EC50 [1]: 2200 nM; EC90 [1]: 8.8 µM; CC50 at 9 days [2]: 48 µM
3 | Cc1cccc(C(=O)Nc2ccc(F)cc2)c1O | 144.8 to 145.8 °C | – | – | – | –
4 | Cc1cccc(C(=O)Nc2ccccc2Cl)c1O | 99.8 to 100.4 °C | – | – | – | –
5 | CC(=O)Oc1ccccc1C(=O)Nc1ccccc1S(C)(=O)=O | 115 to 117 °C | – | – | – | –
6 | CC(=O)Oc1ccccc1C(=O)Nc1cc(C(F)(F)F)ccc1Cl [Compound 52, 2-(2-chloro-5-(trifluoromethyl)phenylcarbamoyl)phenyl acetate] | – | – | – | – | EC50 [1]: 2500 nM; EC90 [1]: 9.1 µM; CC50 at 9 days [2]: 59 µM
7 | CS(=O)(=O)c1cccc(NC(=O)c2ccccc2O)c1 | 210 to 212 °C | – | – | – | –
8 | CC(=O)Oc1ccccc1C(=O)Nc1ccc(S(C)(=O)=O)cc1 | 184 to 186 °C | – | – | – | –
9 | Cc1cc([N+](=O)[O-])c(Cl)cc1NC(=O)c1ccccc1O [Compound 42, N-(5-chloro-2-methyl-4-nitrophenyl)-2-hydroxybenzamide] | – | – | – | – | EC50 [1]: 230 nM; EC90 [1]: 0.71 µM; EC50 [3]: 680 nM; EC90 [3]: 2.1 µM; CC50 at 9 days [2]: > 100 µM
10 | Cc1cccc(C(=O)Nc2cccc(F)c2)c1O [Compound 9, N-(3-fluorophenyl)-2-hydroxy-3-methylbenzamide] | 143.8 to 144.8 °C | 1900 nM | 9 µM | 40 µM | –
11 | CC(=O)Oc1ccc(Cl)cc1C(=O)Nc1ccc([N+](=O)[O-])cc1Cl [Compound 25, 4-chloro-2-(2-chloro-4-nitrophenylcarbamoyl)phenyl acetate] | – | 130 nM | 0.82 µM | 5.8 µM | EC50 [6]: 78 nM; EC90 [6]: 310 nM; CC50 at 3 days [7]: 3.4 µM; EC50 [8]: 100 nM; EC90 [8]: 460 nM; CC50 at 3 days [9]: 4.3 µM
12 | CS(=O)(=O)c1ccc(NC(=O)c2ccccc2O)cc1 | 193 °C and 193 to 196 °C | – | – | – | –
13 | O=C(O)c1ccccc1C(=O)Nc1ccccc1Cl [Compound 15, 2-(2-chlorophenylcarbamoyl)benzoic acid] | 145.2 to 145.7 °C | 2900 nM | 11 µM | 78 µM | –
14 | CC(=O)Oc1ccccc1C(=O)Nc1ccc(Br)cc1 [Compound 39, 2-(4-bromophenylcarbamoyl)phenyl acetate] | – | – | – | – | EC50 [1]: 760 nM; EC90 [1]: 3 µM; EC50 [3]: 2100 nM; EC90 [3]: 6.8 µM; CC50 at 9 days [2]: > 100 µM
15 | O=C(Nc1cc(C(F)(F)F)cc(C(F)(F)F)c1)c1ccccc1O | 196 to 198 °C | – | – | – | –
16 | O=C(Nc1ccccc1Br)c1ccccc1O [Compound 4, N-(2-bromophenyl)-2-hydroxybenzamide] | 165.5 °C | 5800 nM | 20 µM | > 100 µM | –
17 | O=C(Nc1ccc([N+](=O)[O-])cc1Cl)c1cc(Cl)ccc1O [Compound 6, 5-chloro-N-(2-chloro-4-nitrophenyl)-2-hydroxybenzamide] | – | 310 nM | 1.2 µM | 11 µM | EC50 [6]: 100 nM; EC90 [6]: 610 nM; CC50 at 3 days [7]: 0.64 µM; EC50 [8]: 110 nM; EC90 [8]: 820 nM; CC50 at 3 days [9]: 0.79 µM
18 | O=C(O)c1ccccc1C(=O)Nc1ccc(F)cc1 | 167.3 °C | – | – | – | –
19 | O=C(Nc1ccccc1Cl)c1ccccc1O [Compound 23, N-(2-chlorophenyl)-2-hydroxybenzamide] | 168.1 to 168.8 °C | 3800 nM | 21 µM | 72 µM | –

Row | Structure (SMILES) | melting point | EC50 [4] | EC90 [4] | CC50 at 3 days [5] | also measured
20 | CC(=O)Oc1ccccc1C(=O)Nc1cc(C(F)(F)F)cc(C(F)(F)F)c1 [Compound 34, 2-(3,5-bis(trifluoromethyl)phenylcarbamoyl)phenyl acetate] | 118 to 125 °C | 440 nM | 1.7 µM | 4.3 µM | EC50 [6]: 910 nM; EC90 [6]: 3700 nM; CC50 at 3 days [7]: 9.5 µM; EC50 [8]: 790 nM; EC90 [8]: 4700 nM; CC50 at 3 days [9]: 7.8 µM
21 | Cc1cccc(C(=O)Nc2cccc(Br)c2)c1O | 147.2 to 148.2 °C | – | – | – | –
22 | CS(=O)(=O)c1ccccc1NC(=O)c1ccccc1O | 142 to 145 °C | – | – | – | –
23 | CC(=O)Oc1ccccc1C(=O)Nc1ccc(Cl)cc1 [Compound 38, 2-(4-chlorophenylcarbamoyl)phenyl acetate] | – | – | – | – | EC50 [1]: 3500 nM; EC90 [1]: 9.7 µM; CC50 at 9 days [2]: > 100 µM
24 | O=C(Nc1ccc(OC(F)(F)C(F)F)cc1)c1ccccc1O [Compound 49, 2-hydroxy-N-(4-(1,1,2,2-tetrafluoroethoxy)phenyl)benzamide] | – | 313 nM | 1.1 µM | 3.9 µM | –
25 | Cc1cccc(C(=O)Nc2ccc(Cl)cc2)c1O [Compound 20, N-(4-chlorophenyl)-2-hydroxy-3-methylbenzamide] | 159.6 to 161.6 °C | 6500 nM | 16 µM | > 100 µM | –
26 | Cc1cccc(C(=O)Nc2ccccc2F)c1O | 74.2 to 83.4 °C | – | – | – | –
27 | Cc1cccc(C(=O)Nc2cccc(Cl)c2)c1O [Compound 14, N-(3-chlorophenyl)-2-hydroxy-3-methylbenzamide] | 148.5 °C | 2800 nM | 7.8 µM | 35 µM | –
28 | Cc1cccc(C(=O)Nc2cccc([N+](=O)[O-])c2)c1O | 217.5 °C | – | – | – | –
29 | CC(=O)Oc1ccccc1C(=O)Nc1cc([N+](=O)[O-])ccc1Cl [Compound 54, 2-(2-chloro-5-nitrophenylcarbamoyl)phenyl acetate] | – | – | – | – | EC50 [1]: 2100 nM; EC90 [1]: 8.5 µM; CC50 at 9 days [2]: 65 µM
30 | CC(=O)Oc1ccccc1C(=O)Nc1cccc(S(C)(=O)=O)c1 | 51 to 53 °C | – | – | – | –
31 | CC(=O)Oc1ccccc1C(=O)Nc1ccc(I)cc1 [Compound 40, 2-(4-iodophenylcarbamoyl)phenyl acetate] | – | – | – | – | EC50 [1]: 200 nM; EC90 [1]: 1.2 µM; EC50 [3]: 730 nM; EC90 [3]: 3.3 µM; CC50 at 9 days [2]: > 100 µM
32 | O=C(Nc1cccc(C(F)(F)F)c1)c1ccccc1O [Compound 27, 2-hydroxy-N-(3-(trifluoromethyl)phenyl)benzamide] | 188 to 190.6 °C | 3600 nM | 11 µM | > 100 µM | –
33 | CC(=O)Oc1ccccc1C(=O)Nc1cccc(F)c1 [Compound 24, 2-(3-fluorophenylcarbamoyl)phenyl acetate] | 88.5 to 89.7 °C | 2100 nM | 6.8 µM | > 100 µM | –
34 | O=C(Nc1cccc([N+](=O)[O-])c1)c1ccccc1O [Compound 7, 2-hydroxy-N-(3-nitrophenyl)benzamide] | 222 °C | 1100 nM | 6.1 µM | 34 µM | –
35 | O=C(Nc1cccc(Br)c1)c1ccccc1O | 183.5 °C | – | – | – | –
36 | O=C(Nc1ccc(C(F)(F)F)cc1)c1ccccc1O [Compound 51, 2-hydroxy-N-(4-(trifluoromethyl)phenyl)benzamide] | – | – | – | – | EC50 [1]: 5600 nM; EC90 [1]: 21 µM; CC50 at 9 days [2]: > 100 µM
37 | CC(=O)Oc1ccccc1C(=O)Nc1ccc(Cl)c([N+](=O)[O-])c1 [Compound 53, 2-(4-chloro-3-nitrophenylcarbamoyl)phenyl acetate] | – | – | – | – | EC50 [1]: 2000 nM; EC90 [1]: 8.7 µM; CC50 at 9 days [2]: 52 µM
